Results published in patent US7816523B2, “Potentiators of glutamate receptors” (Eli Lilly and Company, priority 2004, dated 2010).

Columns and labels:
human mGlu2 receptors = molecular target: T1, human mGlu2 receptors (Homo sapiens, UniProt Q14416); assay: Potentiation of glutamate-induced increase in intracellular calcium with a mGlu2 expressing cell line (FLIPR); format: cell-based; settings: with submaximal glutamate-site agonist (e.g. 1 μM glutamate)
T1 construct: expressed in transfected cells; host or cells: RGT cells (co-transfected with the glutamate/aspartate transporter GLAST and stably transfected with Galpha15)
T1 sequence (Q14416 19-872): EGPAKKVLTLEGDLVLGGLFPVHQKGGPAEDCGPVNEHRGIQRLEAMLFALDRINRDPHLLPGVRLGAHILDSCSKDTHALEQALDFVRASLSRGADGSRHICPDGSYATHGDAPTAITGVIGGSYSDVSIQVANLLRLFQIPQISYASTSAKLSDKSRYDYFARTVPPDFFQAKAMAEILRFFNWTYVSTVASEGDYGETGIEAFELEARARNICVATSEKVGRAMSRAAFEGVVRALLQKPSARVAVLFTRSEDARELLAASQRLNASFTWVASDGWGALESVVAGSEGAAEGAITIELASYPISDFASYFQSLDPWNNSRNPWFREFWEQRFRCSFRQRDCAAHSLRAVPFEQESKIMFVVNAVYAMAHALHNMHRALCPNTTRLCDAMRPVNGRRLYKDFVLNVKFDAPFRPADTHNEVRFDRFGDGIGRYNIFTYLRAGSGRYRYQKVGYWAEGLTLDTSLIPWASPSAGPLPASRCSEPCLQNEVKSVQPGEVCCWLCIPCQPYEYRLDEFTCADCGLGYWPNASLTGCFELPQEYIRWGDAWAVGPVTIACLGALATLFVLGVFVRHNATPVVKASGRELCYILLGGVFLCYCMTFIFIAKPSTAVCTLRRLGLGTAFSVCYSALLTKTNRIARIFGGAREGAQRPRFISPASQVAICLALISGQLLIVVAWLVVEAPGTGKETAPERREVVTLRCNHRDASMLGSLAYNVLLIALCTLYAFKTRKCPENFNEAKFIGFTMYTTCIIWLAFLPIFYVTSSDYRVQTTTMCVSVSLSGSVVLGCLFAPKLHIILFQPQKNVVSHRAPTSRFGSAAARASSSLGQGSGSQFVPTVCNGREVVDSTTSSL
Description: Potentiation of Glutamate-Induced Increase in Intracellular Calcium with a mGlu2 Expressing Cell Line
Cell lines expressing human mGlu2 receptors are derived as previously described (Desai, Burnett, Mayne, Schoepp, Mol. Pharmacol. 48, 648-657, 1995) and cultured in DMEM with 5% dialyzed fetal bovine serum, 1 mM glutamine, 1 mM sodium pyruvate, 50 μg/mL Geneticin G418, and 0.2 mg/mL hygromycin B. Confluent cultures are passaged weekly. These cells are referred to as RGT cells for Rat Glutamate Transporter, and have been co-transfected with the glutamate/aspartate transporter GLAST. The RGT cell line expressing the mGlu2 receptors is stably transfected with the promiscuous G-protein, Galpha15 to change the signaling pathway to the mGlu2 receptor to one that could be easily measured through release of intracellular calcium. Thus, intracellular calcium levels are monitored before and after the addition of drugs on a Fluorometric Imaging Plate Reader (i.e. FLIPR, Molecular Devices). The following buffer is used throughout as an assay buffer: 10 mM KCl, 138 mM NaCl, 5 mM Ca Cl2, 1 mM MgCl2, 4 mM Na H2PO4, 10 mM Glucose, 10 mM HEPES, pH 7.4. Cells that had been plated 48 hours prior at a density of 30-40,000 cells per well in a 96-well plate are loaded with a calcium-sensitive dye for 90 minutes at 25° C. Fluo-3 (2 mM in DMSO, Molecular Probes) are mixed with a equal volume of 10% pluronic acid in DMSO, and diluted to 8 μM into the buffer described above containing 10% fetal bovine serum to make the loading buffer. Following loading of the cells, the loading buffer is removed and replaced with assay buffer prior to drug addition and monitoring on the FLIPR. The resulting signal from the addition of compounds of formula (I) and submaximal concentrations of a glutamate-site agonist (e.g. 1 μM glutamate) is determined by taking the difference of the maximal fluorescent peak height minus the background fluorescence in each well and expressing the results as a percent of the signal seen with a maximal glutamate response (30 μM glutamate, typically about 30-50,000 Relative Fluorescent Units). Least squares curve fitting with a four-parameter equation is then applied to the resulting dose-% response curve to determine the resulting EC50 values.

human CysLT1 receptor = molecular target: T2, human CysLT1 receptor (Homo sapiens, UniProt Q9Y271); assay: Antagonism of LTD4-induced increase in intracellular calcium within a CysLT1 receptor expressing cell line (FLIPR); format: cell-based; settings: 6 nM LTD4; read-out: antagonism of CysLT1 receptors, IC50
T2 construct: expressed in transfected cells; host or cells: AV12-664 (ATCC-9595)
T2 sequence (Q9Y271 1-337): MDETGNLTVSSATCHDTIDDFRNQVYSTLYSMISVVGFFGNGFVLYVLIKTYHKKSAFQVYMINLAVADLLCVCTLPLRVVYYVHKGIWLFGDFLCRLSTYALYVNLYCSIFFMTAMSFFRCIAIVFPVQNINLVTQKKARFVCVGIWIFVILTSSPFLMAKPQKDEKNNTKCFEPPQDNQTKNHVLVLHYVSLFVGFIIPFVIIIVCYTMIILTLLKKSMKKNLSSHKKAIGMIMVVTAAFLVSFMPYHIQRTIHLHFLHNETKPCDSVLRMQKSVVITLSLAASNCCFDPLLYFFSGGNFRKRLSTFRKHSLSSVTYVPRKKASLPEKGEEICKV
Description: Antagonism of Cysteinyl-leukotriene D4 (LTD4) -Induced Increase in Intracellular Calcium within a Cysteinyl-Leukotriene 1 (CysLT1) Receptor Expressing Cell Line
Cell lines expressing the human CysLT1 receptor [AV12-664 (ATCC-9595)] are derived and maintained in culture media: DMEM with 5% dialyzed fetal bovine serum, 1 mM glutamine, and 1 mM sodium pyruvate. Confluent cultures are passaged weekly. Intracellular calcium levels are monitored in the CysLT1-expressing cells with the addition of LTD4, with or without prior exposure to the compounds being tested as antagonists with a Fluorometric Imaging Plate Reader (FLIPR, Molecular Devices). The following buffer is used throughout as an assay buffer: Hanks Buffered Saline Solution without phenol red (GIBCO), with 10 mM HEPES pH 7.4. Cells that had been plated 48 hours prior at a density of 20-25,000 cells per well in a 96-well plate are loaded with a calcium-sensitive dye for 90 minutes at 25° C. Fluo-3 (2 mM in DMSO, Molecular Probes) is mixed with an equal volume of 10% pluronic acid in DMSO, and diluted to 8 μM in the buffer described above containing 10% fetal bovine serum to make the loading buffer. Following loading of the cells, the buffer is removed and replaced with assay buffer prior to drug addition and monitoring on the FLIPR for several minutes. The resulting signal from the addition of 6 nM LTD4 (provides approximately 90% of the maximal signal with 25 nM LTD4) is determined by taking the difference of the maximal fluorescent peak height minus the background fluorescence in each well and expressing the results as a percent of the signal seen without pretreatment of the test compound(s). Least squares curve fitting with a four-parameter equation is applied to the resulting dose-% inhibition curve to determine the resulting IC50 values.

Row | SMILES | EC50 (human mGlu2 receptors) | IC50 (human CysLT1 receptor) | melting point
1 | CCCc1c(OCc2ccc(C(F)c3cccc(-c4nnn[nH]4)c3)cc2)ccc(C(C)=O)c1O (single isomer, unassigned; isomer 1) [Example 81, 1-[4-(4-{Fluoro-[3-(1H-tetrazol-5-yl)-phenyl]-methyl}-benzyloxy)-2-hydroxy-3-propyl-phenyl]-ethanone isomer 1] | < 100 nM | < 750 nM | –
2 | CCCc1c(OCc2ccc(C(O)c3cccc(C(=O)O)c3)cc2)ccc(C(C)=O)c1O (single isomer, unassigned; isomer 1) [Example 83, (+)-3-{[4-(4-Acetyl-3-hydroxy-2-propyl-phenoxymethyl)-phenyl]-hydroxy-methyl}-benzoic acid isomer 1] | < 100 nM | < 750 nM | –
3 | CCCc1c(OCc2ccc(C(O)c3ccc(OC)c(-c4nnn[nH]4)c3)cc2)ccc(C(C)=O)c1O (stereo not shown) [Example 47, 1-[2-hydroxy-4-(4-{hydroxy-[4-methoxy-3-(2H-tetrazol-5-yl)-phenyl]-methyl}-benzyloxy)-3-propyl-phenyl]-ethanone] | < 100 nM | < 750 nM | –
4 | CCCc1c(OCc2ccc(Cc3cccc(-c4nn[nH]n4)c3)cc2)ccc(C(C)=O)c1O [Example 60, 1-(2-hydroxy-3-propyl-4-{4-[3-(1H-tetrazol-5-yl)-benzyl]-benzyloxy}-phenyl)-ethanone] | – | < 750 nM | –
5 | CC(=O)c1ccc(OCc2ccc(Cc3cccc(C(=O)O)c3)cc2)c(Cl)c1O [Example 65, 3-[4-(4-Acetyl-2-chloro-3-hydroxy-phenoxymethyl)-benzyl]-benzoic acid] | < 100 nM | < 750 nM | –
6 | CCCc1c(OCc2ccc([C@H](O)c3cccc(C(=O)O)c3)cc2)ccc(C(C)=O)c1O [Example 155, 3-{[4-(4-acetyl-3-hydroxy-2-propyl-phenoxymethyl)-phenyl]-(S)-hydroxymethyl}-benzoic acid] | – | – | 198.35 °C
